Test results from US10646475B2, “SHMT inhibitors” (The Trustees of Princeton University, priority 2015, dated 2020).
“Also recorded” adds a separate entry of the source. Each block holds one compound with its values, some of them ahead of it.

Key:
[1] = target: T1, human SHMT2 (Homo sapiens, UniProt P34897); assay: SHMT2 in vitro coupled enzymatic assay (coupled with excess MTHFD2, NADH absorption at 340 nm); type: biochemical; details: for IC50: inhibition of initial reaction velocity
T1 sequence (P34897 30-504): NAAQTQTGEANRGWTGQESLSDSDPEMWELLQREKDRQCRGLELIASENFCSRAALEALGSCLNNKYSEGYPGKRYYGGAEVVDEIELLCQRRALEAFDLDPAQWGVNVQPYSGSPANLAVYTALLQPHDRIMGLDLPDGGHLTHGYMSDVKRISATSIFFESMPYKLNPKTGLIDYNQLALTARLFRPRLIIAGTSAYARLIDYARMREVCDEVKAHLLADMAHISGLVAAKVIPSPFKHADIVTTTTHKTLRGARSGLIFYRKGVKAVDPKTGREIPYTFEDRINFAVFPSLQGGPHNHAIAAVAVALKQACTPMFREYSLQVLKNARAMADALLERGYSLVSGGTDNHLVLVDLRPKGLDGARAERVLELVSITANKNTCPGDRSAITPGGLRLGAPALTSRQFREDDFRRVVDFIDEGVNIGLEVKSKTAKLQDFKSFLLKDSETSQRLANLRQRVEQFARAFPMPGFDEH

[2] = target: T2, human SHMT1 (Homo sapiens, UniProt P34896); assay: SHMT1 in vitro coupled enzymatic assay (coupled with excess MTHFD2, NADH absorption at 340 nm); type: biochemical; details: for IC50: inhibition of initial reaction velocity
T2 sequence (P34896 1-483): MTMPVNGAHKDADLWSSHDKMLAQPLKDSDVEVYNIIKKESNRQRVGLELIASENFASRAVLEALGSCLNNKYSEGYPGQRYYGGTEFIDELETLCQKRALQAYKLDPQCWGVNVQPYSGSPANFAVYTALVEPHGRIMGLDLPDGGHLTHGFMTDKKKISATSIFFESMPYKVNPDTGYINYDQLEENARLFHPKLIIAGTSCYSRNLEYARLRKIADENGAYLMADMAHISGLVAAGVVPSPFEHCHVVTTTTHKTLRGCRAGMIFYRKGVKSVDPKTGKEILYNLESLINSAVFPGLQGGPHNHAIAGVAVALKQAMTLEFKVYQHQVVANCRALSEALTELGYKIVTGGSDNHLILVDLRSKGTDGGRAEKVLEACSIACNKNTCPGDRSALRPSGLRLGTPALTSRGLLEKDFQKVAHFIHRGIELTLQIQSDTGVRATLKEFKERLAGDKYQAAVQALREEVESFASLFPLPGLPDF

[3] = target: T3, human MTHFD2 (Homo sapiens, UniProt P13995); assay: MTHFD2 in vitro assay (rate of NADH formation at 340 nm); type: biochemical; details: FIG. 3(c)
T3 sequence (P13995 36-350): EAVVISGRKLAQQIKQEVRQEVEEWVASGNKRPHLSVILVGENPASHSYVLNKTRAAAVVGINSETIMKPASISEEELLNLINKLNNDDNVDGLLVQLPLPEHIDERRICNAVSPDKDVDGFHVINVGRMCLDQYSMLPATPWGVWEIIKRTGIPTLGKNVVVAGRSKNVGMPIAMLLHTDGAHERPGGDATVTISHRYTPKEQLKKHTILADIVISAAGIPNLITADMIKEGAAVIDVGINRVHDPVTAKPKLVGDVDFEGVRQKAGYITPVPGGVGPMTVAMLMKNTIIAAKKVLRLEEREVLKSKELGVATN
From the text: For the MTHFD2 in vitro assay (FIG. 3(c)), the rate of NADH formation was directly monitored at 340 nm.

[4] = tested on: SHMT serine metabolic activity in SHMT2 expressing human cells; assay: Isotope labeling of serine metabolism in cells (labeled serine, LC-MS); type: cell-based; details: uniformly labeled serine, FIG. 2(c)
Method: Using 2,3,3-^2H3-serine (D3-serine) as a tracer, mitochondrial flux was measured by quantifying the labeling pattern of dTTP, a downstream product of dTMP. […] This assay was used to examine mitochondrial serine flux and the effect of compounds of the disclosure on mitochondrial serine flux, in either wildtype or mutant cells.
Uniformly labeled serine is metabolized into various isoptomers in WT cells by the forward and reverse enzymatic activity of SHMT.

[5] = tested on: human cells expressing SHMT2; assay: Measurement of AICAR, marker for one-carbon unit stress, in cells; type: cell-based; details: treatment for 24 hours, increasing concentrations, FIG. 2(b)
Method: HEK-293T cells were cultured in 6-well plates in Dulbecco's modified eagle media (DMEM) without pyruvate with 10% dialysed fetal bovine serum in 5% CO2 at 37° C. […] Growth was quenched and metabolites extracted by aspirating media, washing cells with cold PBS, and immediately adding MeOH/water (80:20 at −80° C.). Supernatants from two rounds of extraction were combined, dried under N2, resuspended in water, placed in a 4° C. autosampler, and analyzed by reverse-phase ion-paring chromatography negative-mode electrospray-ionization high-resolution MS on a stand-alone orbitrap.
Generation of AICAR provides an assay to evaluate one-carbon unit stress. Inhibition of SHMT2 in cells decreases serine metabolism and leads to one-carbon stress. […] Such cells show high constitutive levels of 5-aminoimidazole-4-carboxamide ribonucleotide (AICAR), a marker for one-carbon unit stress, when cultured in media (left bar in FIG. 2(a)). This can be rescued by exogenous treatment with sodium formate (right bar in FIG. 2(a)).
(*) indicates AICAR was below the limit of detection.

[6] = tested on: MTHFD2 knock-out HEK293T cells; assay: Cell growth assay (resazurin), MTHFD2 knock-out 293T; type: cell-based, human; details: varying concentrations
Method: (§1) Inhibitors of SHMT were evaluated in wildtype, SHMT2 knock-out, and MTHFD2 knock-out 293T cells (FIG. 6(a) and FIG. 6(b)).
(§2) The described cell lines used in Examples 9-11 were cultured in 96-well plates in Dulbecco's modified eagle media (DMEM) without pyruvate (CELLGRO) with 10% dialysed fetal bovine serum (Invitrogen) in 5% CO2 at 37° C. Approximately 2,500 cells were plated in each well in 90 uL of media. After 24 hours cells were treated with various concentrations of inhibitor (time=0 hours), with or without formate. Growth was assessed at multiple time points (time=0, 24, 48, 72 hours) through measurement of fluorescence at 595 nm (excitation at 535 nm) on a BioTek micro titer plate reader after incubation with resazurin (0.01 mg/mL for 1.5 hours). IC50 curves were generated from percent inhibition of growth at 72 hours.

[7] = tested on: HEK293T cells; assay: Cell growth assay (resazurin), wild-type HEK293T; type: cell-based, human; details: for inhibition of cell growth: varying concentrations
Method: HEK293T cells were cultured in 96-well plates in Dulbecco's modified eagle media (DMEM) without pyruvate with 10% dialysed fetal bovine serum (Invitrogen) in 5% CO2 at 37° C. 24 hours after plating, cells were treated with various concentrations of inhibitor. Growth was serially assessed using the resazurin (‘AlamarBlue’) assay.
as §2

[8] = tested on: HCT116 human colon carcinoma cells; assay: Cancer cell growth assay (resazurin), HCT116; type: cell-based; details: HCT116, varying concentrations, FIG. 7
Method: (§3) Inhibitors of SHMT were evaluated in various cancer cell lines. […] This cancer cell line comprises (harbors) a mutation in a component of the mitochondrial folate pathway. Specifically, one or more cells in this line comprise a mutation in the downstream mitochondrial folate enzyme, MTHFD1L.
as §2

[9] = tested on: SHMT2 knock-out HEK293 cells; assay: Cell growth assay (resazurin), SHMT2 knock-out 293T; type: cell-based, human; details: varying concentrations
Method: HEK293T cell lines mutant for SHMT1 and SHMT2 were created using the CRISPR-Cas9 system following standard published protocols. Single clones from successful transfections were grown up, genotyped and characterized.
as §1, §2

[10] = tested on: 8988T pancreatic cancer cells; assay: Cancer cell growth assay (resazurin), 8988T; type: cell-based, human; details: 8988T (MTHFD1L mutation), varying concentrations, FIG. 7
Method: as §3, §2

- IC50 ([1]; Table A): 100 nM
- IC50 ([1]; table of Example 6): 100 nM
Compound: Cc1n[nH]c2c1C(c1cc(Cl)cc(C(F)(F)F)c1)(C1CCC1)C(C#N)=C(N)O2 (stereo not shown) [HK-11]

- IC50 ([2]; Table A): 20 nM
- inhibition of human MTHFD2 in enzymatic assays [3]: do not inhibit
- IC50 ([1]; Table A): 35 nM
Compound: Cc1n[nH]c2c1C(c1cc(Cl)cc(C(F)(F)F)c1)(C(C)C)C(C#N)=C(N)O2 (racemic) [HK-15]

- IC50 ([1]; Table A): 3460 nM
- IC50 ([1]; table of Example 6): 3460 nM
Compound: COc1cc(Cl)cc(C2(C3CCC3)C(C#N)=C(N)Oc3[nH]nc(C)c32)c1 (stereo not shown) [HK-9]

- inhibition of human MTHFD2 in enzymatic assays [3]: do not inhibit
Compound: Cc1n[nH]c2c1C(c1cc(C(F)(F)F)cc(C(F)(F)F)c1)(C(C)C)C(C#N)=C(N)O2 (racemic) [HK-16]
- SHMT serine metabolic activity in cells [4]: inhibited in cells by HK-16 in a dose-dependent manner
- AICAR accumulation [5]: AICAR accumulation in a dose-dependent manner

- IC50 ([1]; Table A): 4580 nM
- IC50 ([1]; table of Example 6): 4580 nM
Compound: COc1cccc(C2(C(C)C)C(C#N)=C(N)Oc3[nH]nc(C)c32)c1 (stereo not shown) [HK-6]

- inhibition of human MTHFD2 in enzymatic assays [3]: do not inhibit
Compound: COc1cccc(C2(C3CCC3)C(C#N)=C(N)Oc3[nH]nc(C)c32)c1 (racemic) [HK-2]

Compound: Cc1n[nH]c2c1C(c1cc(C(F)(F)F)cc(C(F)(F)F)c1)(C(C)C)C(C#N)=C(N)O2 (single isomer, unassigned) [HK-16 (PK-1)]
- inhibition of cell growth ([6]; FIG. 6, listed as HK-16-P1): significantly less or no effect
- inhibition of cell growth ([6]; FIG. 6, listed as Peak 1): Some, although a lower degree of activity
- inhibition of cell growth ([7]; FIG. 5, 6): not inhibited
- inhibition of cell growth ([7]; FIG. 5, 6, listed as HK-16-P1): significantly less or no effect
- inhibition of cell growth ([7]; FIG. 5, 6, listed as Peak 1): not appreciably inhibited; also recorded: little or no activity
- inhibition of cancer cell growth ([8]; listed as HK-16-P1): does not inhibit cell growth
- inhibition of cell growth ([9]; FIG. 6, listed as HK-16-P1): significantly less or no effect
- inhibition of cell growth ([9]; FIG. 6, listed as Peak 1): Some, although a lower degree of activity

- IC50 ([1]; Table A): 400 nM
- IC50 ([1]; table of Example 6): 400 nM
Compound: Cc1n[nH]c2c1C(c1cccc(Cl)c1)(C(C)C)C(C#N)=C(N)O2 (stereo not shown) [HK-7]

- IC50 ([1]; Table A): 159 nM
Compound: Cc1n[nH]c2c1C(c1cc(Cl)cc(Cl)c1)(C1CCC1)C(C#N)=C(N)O2 (racemic) [HK-10]

- IC50 ([2]; Table A): 67 nM
- IC50 ([1]; Table A): 131 nM
Compound: Cc1n[nH]c2c1C(c1cc(Cl)cc(Cl)c1)(C(C)C)C(C#N)=C(N)O2 (racemic) [HK-14]

- IC50 ([2]; Table A): 206 nM
- IC50 ([2]; table of Example 6): 206 nM
- IC50 ([1]; Table A): 168 nM
- IC50 ([1]; table of Example 6): 168 nM
Compound: Cc1n[nH]c2c1C(c1cc(C(F)(F)F)cc(C(F)(F)F)c1)(C1CCC1)C(C#N)=C(N)O2 (stereo not shown) [HK-12]

- IC50 ([2]; table of Example 6): 9.3 nM
- IC50 ([1]; table of Example 6): 71 nM
Compound: CC(C)c1n[nH]c2c1C(c1cc(C(F)(F)F)cc(C(F)(F)F)c1)(C(C)C)C(C#N)=C(N)O2 (stereo not shown) [KDG-12]

- IC50 ([1]; Table A): 1190 nM
- IC50 ([1]; table of Example 6): 1190 nM
Compound: Cc1n[nH]c2c1C(c1cccc(Cl)c1)(C1CCC1)C(C#N)=C(N)O2 (stereo not shown) [HK-3]

- activity against SHMT1 in an in vitro enzyme assay ([2]; FIG. 4(b)): active
Compound: Cc1n[nH]c2c1C(c1cc(C(F)(F)F)cc(C(F)(F)F)c1)(C(C)C)C(C#N)=C(N)O2 (stereo not shown) [HK-16 (PK-2)]
- inhibition of cell growth ([6]; FIG. 6, listed as HK-16-P2): active; also recorded: increased sensitivity to inhibition
- inhibition of cell growth ([6]; FIG. 6, listed as Peak 2): inhibited cell growth
- rescue of growth inhibitory effects by formate ([7]; compound at 10 μM, co-culture with formate at 1 mM, FIG. 8): rescued
- inhibition of cell growth ([7]; FIG. 5, 6, listed as HK-16-P2): active
- inhibition of cell growth ([7]; FIG. 5, 6, listed as Peak 2): inhibited in a dose-dependent manner; also recorded: inhibited cell growth
- anti-SHMT2 activity of resolved enantiomers of HK-16 ([1]; FIG. 4(a)): confined to the enantiomer represented by “Peak 2”
- inhibition of cancer cell growth ([8]; listed as HK-16-P2): inhibits cancer cell growth; also recorded: inhibited growth
- inhibition of cell growth ([9]; FIG. 6, listed as HK-16-P2): active; also recorded: increased sensitivity to inhibition
- inhibition of cell growth ([9]; FIG. 6, listed as Peak 2): inhibited cell growth
- inhibition of cancer cell growth ([10]; listed as HK-16 (peak 2)): more sensitive
- inhibition of cancer cell growth ([10]; listed as HK-16-P2): significantly more sensitive; also recorded: inhibited growth

- IC50 ([1]; Table A): 500 nM
- IC50 ([1]; table of Example 6): 500 nM
Compound: COc1cc(Cl)cc(C2(C(C)C)C(C#N)=C(N)Oc3[nH]nc(C)c32)c1 (stereo not shown) [HK-13]

- IC50 ([2]; table of Example 6): > 5000 nM
- IC50 ([1]; table of Example 6): > 5000 nM
Compound: Cc1nn(C)c2c1C(c1cc(C(F)(F)F)cc(C(F)(F)F)c1)(C(C)C)C(C#N)=C(N)O2 (stereo not shown) [KDG-4]

- IC50 ([2]; table of Example 6): > 5000 nM
- IC50 ([1]; table of Example 6): > 5000 nM
Compound: Cc1nn(-c2ccccc2)c2c1C(c1cc(C(F)(F)F)cc(C(F)(F)F)c1)(C(C)C)C(C#N)=C(N)O2 (stereo not shown) [KDG-5]
